Assay [1] addresses T1, GluN1/GluN2A-V820I (Rattus norvegicus, UniProt P35439+Q00959, V820I).
T1 construct: GFP (N); expressed in transfected cells; host or cells: HEK-293T
In kind it is cell-based.

Assay [2] addresses T2, GluN1-GluN2C (Rattus norvegicus, UniProt P35439+Q00961).
T2 construct: HA (N); expressed in transfected cells; host or cells: HEK-293T
Format: cell-based.

For assay [3], the target named is T3, GluN1-GluN2B (Rattus norvegicus, UniProt P35439+Q00960).
T3 construct: GFP (N); expressed in transfected cells; host or cells: HEK-293T
T3 sequence (Q00960 27-1482, other chains not shown): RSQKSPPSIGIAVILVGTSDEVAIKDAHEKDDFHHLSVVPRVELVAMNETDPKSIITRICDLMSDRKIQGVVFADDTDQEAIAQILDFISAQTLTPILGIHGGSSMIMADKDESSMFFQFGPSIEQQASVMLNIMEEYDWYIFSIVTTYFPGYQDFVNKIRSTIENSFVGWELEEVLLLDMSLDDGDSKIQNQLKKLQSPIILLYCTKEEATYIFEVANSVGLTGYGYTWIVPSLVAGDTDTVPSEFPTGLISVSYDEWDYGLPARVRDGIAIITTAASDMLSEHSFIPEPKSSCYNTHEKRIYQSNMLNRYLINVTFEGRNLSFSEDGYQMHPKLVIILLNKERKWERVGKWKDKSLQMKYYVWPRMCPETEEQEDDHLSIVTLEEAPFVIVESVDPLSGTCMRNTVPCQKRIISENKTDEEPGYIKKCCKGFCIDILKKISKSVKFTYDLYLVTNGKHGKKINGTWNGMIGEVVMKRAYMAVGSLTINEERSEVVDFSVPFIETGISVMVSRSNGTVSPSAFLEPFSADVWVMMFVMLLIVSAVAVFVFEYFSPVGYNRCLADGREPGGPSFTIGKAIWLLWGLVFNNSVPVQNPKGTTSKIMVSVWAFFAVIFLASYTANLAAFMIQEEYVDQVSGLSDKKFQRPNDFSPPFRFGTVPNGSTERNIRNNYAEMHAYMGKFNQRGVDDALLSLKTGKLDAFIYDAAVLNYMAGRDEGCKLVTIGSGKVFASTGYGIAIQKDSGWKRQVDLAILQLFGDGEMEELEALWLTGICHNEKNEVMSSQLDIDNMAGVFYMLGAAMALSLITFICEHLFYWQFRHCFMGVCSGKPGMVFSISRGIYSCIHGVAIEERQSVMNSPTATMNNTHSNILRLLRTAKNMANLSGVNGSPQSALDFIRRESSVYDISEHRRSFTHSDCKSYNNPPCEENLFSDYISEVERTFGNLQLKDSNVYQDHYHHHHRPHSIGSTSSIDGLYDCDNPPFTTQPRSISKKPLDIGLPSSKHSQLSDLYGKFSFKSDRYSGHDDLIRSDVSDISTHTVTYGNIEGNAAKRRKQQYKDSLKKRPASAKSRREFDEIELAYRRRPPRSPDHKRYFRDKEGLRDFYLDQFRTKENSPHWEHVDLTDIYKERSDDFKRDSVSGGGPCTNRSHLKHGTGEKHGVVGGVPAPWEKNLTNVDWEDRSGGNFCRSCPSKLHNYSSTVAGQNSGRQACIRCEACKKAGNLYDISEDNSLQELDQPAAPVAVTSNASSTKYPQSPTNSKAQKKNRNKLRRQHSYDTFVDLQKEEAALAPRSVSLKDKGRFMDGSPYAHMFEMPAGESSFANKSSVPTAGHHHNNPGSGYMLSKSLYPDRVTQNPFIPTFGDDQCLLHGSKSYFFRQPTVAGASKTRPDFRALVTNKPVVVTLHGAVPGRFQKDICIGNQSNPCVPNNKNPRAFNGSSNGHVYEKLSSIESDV
Format: cell-based.

Assay [4] concerns the target T3, GluN1-GluN2B. Format: cell-based. The source holds these as a separate data set.
Assay [5] has as its target T4, GluN1-GluN2A (Rattus norvegicus, UniProt P35439+Q00959).
T4 construct: GFP (N); expressed in transfected cells; host or cells: HEK-293T (single-channel: HEK293)
In kind it is cell-based.

Assay [6] concerns the target T4, GluN1-GluN2A. The assay can be described thus: cell-based.
For assay [7], the target named is T4, GluN1-GluN2A. Format: cell-based. This is another data set of the same source.
In assay [8] the target is T5, GluN1-GluN2D (Rattus norvegicus, UniProt P35439+Q62645).
T5 construct: HA (N); expressed in transfected cells; host or cells: HEK-293T
In kind it is cell-based.

Assay [9] concerns the target T3, GluN1-GluN2B. Description: cell-based.

The term EC50 denotes the concentration that produces a half-maximal response.

Values joined by “and” are separate entries in the source; they are usually repeats but may differ in a detail not shown here. Identical values can stand only once. No end group written: not given here.

T2 sequence (Q00961 20-1237, other chains not shown): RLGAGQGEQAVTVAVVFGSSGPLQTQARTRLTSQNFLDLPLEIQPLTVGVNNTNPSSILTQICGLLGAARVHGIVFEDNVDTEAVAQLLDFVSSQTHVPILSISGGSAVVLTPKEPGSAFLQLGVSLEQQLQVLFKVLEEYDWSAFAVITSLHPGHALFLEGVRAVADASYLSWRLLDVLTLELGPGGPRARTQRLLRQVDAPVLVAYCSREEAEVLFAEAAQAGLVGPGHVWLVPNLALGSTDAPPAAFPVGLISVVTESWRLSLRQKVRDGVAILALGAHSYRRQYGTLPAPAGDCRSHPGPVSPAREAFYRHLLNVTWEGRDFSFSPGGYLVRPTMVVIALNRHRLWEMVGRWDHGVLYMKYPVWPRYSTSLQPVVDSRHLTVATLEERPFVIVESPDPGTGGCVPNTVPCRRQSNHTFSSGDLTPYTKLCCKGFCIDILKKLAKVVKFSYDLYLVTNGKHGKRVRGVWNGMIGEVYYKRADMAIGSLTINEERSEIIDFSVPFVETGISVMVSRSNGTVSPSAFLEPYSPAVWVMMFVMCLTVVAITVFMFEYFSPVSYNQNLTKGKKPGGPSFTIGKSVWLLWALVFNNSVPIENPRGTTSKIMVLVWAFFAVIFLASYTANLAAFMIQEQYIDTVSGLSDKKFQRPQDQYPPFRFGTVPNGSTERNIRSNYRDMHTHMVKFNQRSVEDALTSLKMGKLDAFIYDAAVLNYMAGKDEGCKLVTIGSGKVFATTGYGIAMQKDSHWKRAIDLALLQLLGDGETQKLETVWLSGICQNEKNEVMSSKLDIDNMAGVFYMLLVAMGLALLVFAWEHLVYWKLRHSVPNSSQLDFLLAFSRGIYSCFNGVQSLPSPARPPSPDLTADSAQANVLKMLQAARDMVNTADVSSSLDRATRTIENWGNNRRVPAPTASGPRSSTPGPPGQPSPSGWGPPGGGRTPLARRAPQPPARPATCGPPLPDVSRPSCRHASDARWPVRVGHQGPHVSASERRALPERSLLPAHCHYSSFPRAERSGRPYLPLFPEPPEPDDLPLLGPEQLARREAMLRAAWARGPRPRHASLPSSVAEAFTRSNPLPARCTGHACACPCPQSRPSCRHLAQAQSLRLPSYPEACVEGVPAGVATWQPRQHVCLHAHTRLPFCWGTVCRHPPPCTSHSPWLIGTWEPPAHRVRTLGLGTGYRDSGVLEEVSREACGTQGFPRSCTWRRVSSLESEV
T4 sequence (Q00959 23-1464, other chains not shown): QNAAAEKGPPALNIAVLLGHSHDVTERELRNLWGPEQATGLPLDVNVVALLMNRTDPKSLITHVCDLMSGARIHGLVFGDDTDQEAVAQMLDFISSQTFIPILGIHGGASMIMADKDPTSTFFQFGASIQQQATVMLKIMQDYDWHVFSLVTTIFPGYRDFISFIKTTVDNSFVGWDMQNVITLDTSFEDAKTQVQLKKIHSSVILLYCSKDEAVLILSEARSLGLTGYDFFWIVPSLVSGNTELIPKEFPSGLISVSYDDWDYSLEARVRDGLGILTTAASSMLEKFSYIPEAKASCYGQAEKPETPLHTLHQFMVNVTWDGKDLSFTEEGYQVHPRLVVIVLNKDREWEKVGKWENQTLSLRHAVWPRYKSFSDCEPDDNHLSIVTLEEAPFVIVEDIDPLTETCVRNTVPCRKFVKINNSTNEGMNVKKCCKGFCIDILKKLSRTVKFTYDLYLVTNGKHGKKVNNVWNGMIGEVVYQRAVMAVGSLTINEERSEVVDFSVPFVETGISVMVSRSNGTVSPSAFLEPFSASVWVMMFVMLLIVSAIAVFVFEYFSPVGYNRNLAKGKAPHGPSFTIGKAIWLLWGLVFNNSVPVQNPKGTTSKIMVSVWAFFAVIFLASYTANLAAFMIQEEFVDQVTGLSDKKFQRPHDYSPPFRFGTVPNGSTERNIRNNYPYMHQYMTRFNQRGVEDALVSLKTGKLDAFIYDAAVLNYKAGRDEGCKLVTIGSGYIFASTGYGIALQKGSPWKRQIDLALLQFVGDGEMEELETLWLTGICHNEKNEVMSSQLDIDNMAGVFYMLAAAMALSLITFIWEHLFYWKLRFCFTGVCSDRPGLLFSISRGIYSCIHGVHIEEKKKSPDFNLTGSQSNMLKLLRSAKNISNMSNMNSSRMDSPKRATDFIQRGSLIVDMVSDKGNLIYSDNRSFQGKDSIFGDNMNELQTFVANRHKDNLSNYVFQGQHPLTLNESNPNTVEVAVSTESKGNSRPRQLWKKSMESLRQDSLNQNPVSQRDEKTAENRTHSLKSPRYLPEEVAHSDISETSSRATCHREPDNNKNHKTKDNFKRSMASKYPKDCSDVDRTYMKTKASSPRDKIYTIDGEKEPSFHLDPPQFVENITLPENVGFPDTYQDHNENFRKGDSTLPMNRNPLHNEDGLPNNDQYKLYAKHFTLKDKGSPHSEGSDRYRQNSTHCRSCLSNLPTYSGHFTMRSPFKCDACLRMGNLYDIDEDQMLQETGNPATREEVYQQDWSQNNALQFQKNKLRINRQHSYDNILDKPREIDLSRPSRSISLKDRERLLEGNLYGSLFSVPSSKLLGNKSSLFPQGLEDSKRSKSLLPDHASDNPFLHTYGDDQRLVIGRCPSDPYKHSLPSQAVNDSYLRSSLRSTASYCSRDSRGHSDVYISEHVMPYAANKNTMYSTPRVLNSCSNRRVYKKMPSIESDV

As for KLGMRSELQIDNDQDAD [EAR-20], the steady-state potentiation in [1] is 146.6% ± 37.8%. Besides, the peak current potentiation in [2] was −8.04% ± 7.48%; in assay [3] it was 102.6% ± 24.02%; in assay [5] it was 15.68% ± 6.19% and 15.68% ± 6.16%; in assay [8], 4.97% ± 2.63%. For the same sequence, the steady-state current potentiation is 23.31% ± 7.6% and ~25% in [2]; 137.9% ± 21.0% and 137.9% and 143.7% ± 26.8% in assay [3]; 154.3% ± 19.0% and 154.3% and 153.3% ± 19.9% in assay [5]; 102.45% ± 11.1% in assay [8]. Further, the “potentiation by EAR-20” value in assay [3] is listed as 136.8% ± 19.6%. Moreover, the “maximal agonist activity relative to glutamate plus glycine” value in assay [4] is reported as 12.18% ± 6.9%. The “response in the presence of glutamate, % of glutamate plus glycine response” value in [4] is listed as 38.33% ± 17.1%. The “response in the presence of glycine, % of glutamate plus glycine response” value in assay [4] is 43.22% ± 18.1%. The figures for the EC50 in assay [6] and in assay [9] were 88.7 µM and 42.2 µM, respectively. Moreover, the “agonistic activity relative to glutamate plus glycine” value in assay [7] was 13.31% ± 6.5%.

(Values after paper PMC12678337, “EAR-20 peptide, a novel NMDA receptor positive allosteric modulator” (Frontiers in Pharmacology, 2025).)
